Reference: patent publication US6569638B1, “Method for screening compounds for the treatment of neoplasia” (Cell Pathways, Inc, priority 2000, dated 2003)

Columns and labels:
[1] = tested on: JNK1 in SW480 colon cancer cells; assay: JNK1 immunoprecipitation in vitro kinase assay with GST-c-Jun(1-79); format: cell-based, human; conditions: SW480 cells
Method: The cells were lysed, JNK1 immunoprecipitated with an anti-JNK1 antibody, and the immunoprecipitate (“IP”) assayed for in vitro kinase activity with GST-c-Jun(1-79) as the substrate. The experiments were repeated three times with similar results. Fold activation was measured using a Phosphor Imager.
FIG. 1B: SW480 cells were treated with Compound A (1 μM) for the indicated time periods and in vitro JNK1 kinase activity was determined as described above.
FIG. 2A SW480 cells were treated with either DMSO (−) or Compound A, 0.1 μM; dbcGMP, 500 μM; YC-1, 50 μM; MY-5445, 50 μM; dipyridamole, 10 μM or dbcAMP, 500 μM for one hour. The cells were lysed, JNK1 immunoprecipitated, and the IP assayed for in vitro kinase activity as described in FIG. 1A.
FIG. 2B SW480 cells were pre-treated with either DMSO, KT5720 (2 μM) or Rp-8-pCPT-cGMPS (2 μM) for 2 hours and then treated with Compound B (0, 1 or 10 μM) for one hour. The cells were lysed and assayed for JNK1 activation in the IP as described above.
These concentrations were chosen since they provided optimal induction of apoptosis. Endogenous JNK1 was immunoprecipitated with anti-JNK1 antibody and in vitro kinase assays were performed with GST-c-Jun(1-79) as the substrate. […]
However, the precise role of PKG in signal transduction pathways is not known. […] As a control, KT5720 was used as a protein kinase A (“PKA”)-specific inhibitor. SW480 cells were treated with either DMSO, KT5720 (2 μM) or Rp-8-pCPT-cGMPS (2 μM) for 2 hours and then treated with either DMSO or Compound B (1 or 10 μM) for one hour. Cell extracts were collected and assayed for JNK1 activation.

caspase-3 in SW480 cells = assay: Caspase-3 activity with Ac-DEVD-AFC substrate; format: cell-based, human; conditions: 24 hours, sulindac sulfide 200 μM, exisulind 600 μM, Compound A 1 μM, Compound B 10 μM
Method: The cells were lysed and the extracts assayed for caspase-3 activity using Ac-DEVD-AFC as the substrate, in the presence or absence of the caspase-3 inhibitor Ac-DEVD-CHO. Caspase-3 activity was calculated by subtracting the AFC fluorescence (excitation; 400 nm, emission; 505 nm) in the presence of Ac-DEVD-CHO from the AFC fluorescence in the absence of Ac-DEVD-CHO.
Protein extracts were then prepared and caspase-3 activity was measured with Ac-DEVD-AFC as the substrate, in the presence or absence of the caspase-3 inhibitor Ac-DEVD-CHO. […] Similar findings were obtained with HCT116 and HT29 cells (data not shown).

SEK1 in SW480 cells = assay: SEK1 phosphorylation by Western blot (anti-phospho-SEK1 Thr223); format: cell-based, human; conditions: Compound A 1 μM
Method: FIG. 3A: SW480 cells were treated with Compound A (1 μM), collected at the indicated time points, and cell lysates assayed for SEK1 activation by Western blotting with anti-phospho-SEK1 (Thr223) antibody. Fold increase in phosphorylation was measured by densitometry. The experiment was repeated three times with similar results.
To further characterize the signal transduction pathway involved in the above-described JNK1 activation, we tested whether SEK1, the protein kinase immediately upstream of JNK1, was also activated by a SAAND. Activation of SEK1 occurs through phosphorylation of two residues of this protein, Ser219 and Thr223, by the protein kinase MEKK1. SW480 cells were treated with Compound A (1 μM) for various times, up to 6 hours, and extracts were analyzed by Western blot analysis using a phospho-Thr223-specific SEK1 antibody. The treatment with Compound A induced increased phosphorylation of SEK1, within 15-30 minutes, without changing the total cellular level of the endogenous SEK1 protein (see, FIG. 3A). By 1 hour there was a 9-fold induction, and this effect persisted for at least 6 hours (FIG. 3A).

MEKK1 in SW480 cells = assay: MEKK1 cleavage and activation (Western blot, autophosphorylation); format: cell-based, human
Method: FIG. 3B: SW480 cells were treated with Compound A (1 μM) and collected after either 1 or 2 days and the cell lysates were assayed for MEKK1 cleavage by Western blotting with anti-MEKK1 antibody. Minus (−) indicates DMSO treated control cells.
We then examined the effect of a SAAND on MEKK1, a protein kinase immediately upstream of SEK1. […] Previous studies indicate that MEKK1 is cleaved during activation by caspases (19). […] It is not clear, however, whether cGMP-activated PKG directly activates MEKK1 or whether the cleavage and activation of MEKK1 is an indirect effect of the process of apoptosis.

PARP in SW480 cells = assay: PARP cleavage by Western blot; format: cell-based, human; conditions: SW480 cells, Compound A 1 μM, 2 days
Method: SW480 cells were pre-treated with either DMSO (−) or Rp-8-pCPT-cGMPS (2 μM) for 2 hours and then treated with either DMSO (−) or Compound A (1 μM). Both the floating and attached cells were collected after 2 days, and the cell lysates were assayed for PARP cleavage by Western blotting with anti-PARP antibody. Fold increase in PARP cleavage was measured by densitometry of the 85 kD fragment.
Finally, we investigated whether activation of the PKG pathway is required for the induction of apoptosis by SAANDs. SW480 cells were treated with either DMSO or the PKG inhibitor Rp-8-pCPT-cGMPS (2 μM) for 2 hours and then the cells were treated with either DMSO or Compound A (1 μM) for 2 days. Both the floating and attached cells were collected, and the cell lysates were assayed for poly (ADP-ribose) polymerase (PARP) cleavage by Western blotting with an anti-PARP antibody. PARP is a 116 kD nuclear enzyme that converts NAD to nicotinamide and protein-linked ADP-ribose polymers, which are important for DNA repair and genomic maintenance. In cells that are undergoing apoptosis the 116 kD PARP protein is cleaved by caspase-3 into 85 and 25 kD fragments, thus resulting in loss of normal PARP function. This inactivation of PARP apparently prevents depletion of cellular levels of NAD and ATP, which are thought to be required for later events in apoptosis.

[2] = molecular target: T1, GST-cGB-PDE5 fusion protein (cGMP binding sites of human PDE5A) (Homo sapiens, UniProt O76074); assay: cGMP binding assay (3H-cGMP competition); conditions: 3H-cGMP 2 μM, 22° C., 1 hour
T1 construct: made in house; host or cells: E. coli BL21 (DE3)

PDE 5 (i.e., peak A) = PDE 5 (i.e., peak A) (Homo sapiens, UniProt O76074); assay: Competitive binding with cGMP; conditions: PDE 5 (peak A)
PDE peak B = assay: Competitive binding with cGMP

## COc1cc(/C=C2/C(C)=C(CC(=O)NCc3ccccc3)c3cc(F)ccc32)cc(OC)c1OC [Compound A, (Z)-5-fluoro-2-methyl-(3,4,5-trimethyl-oxybenzylidene)-3-(N-benzyl)-indenylacetamide]
[1]; Compound A 1 μM, time course
  duration of sustained JNK1 activation: at least 24 hours
[1]; one hour, sulindac sulfide 50-500 μM, exisulind 100-600 μM, Compound A 0.1-5 μM, Compound B 1-50 μM
  JNK1 activation: activated JNK1
caspase-3 in SW480 cells
  caspase-3 activation: led to activation of caspase-3
SEK1 in SW480 cells
  persistence of SEK1 phosphorylation: at least 6 hours
  time to increased phosphorylation of SEK1: 15 to 30 min
SEK1 in SW480 cells; by 1 hour
  induction of SEK1 phosphorylation: 9 fold
MEKK1 in SW480 cells
  MEKK1 activity (autophosphorylation and phosphorylation of GST-SEK1): strong and transient activation of MEKK1 activity
MEKK1 in SW480 cells; Compound A 1 μM, one or two days
  MEKK1 cleavage: cleavage of this protein
PARP in SW480 cells
  PARP cleavage: induced PARP cleavage
[2]
  competition with cGMP for the cGMP binding sites of GST-cGB-PDE5: None of the PDE5 inhibitors showed any competition with cGMP
PDE 5 (i.e., peak A)
  competitive binding with cGMP: competitively (with cGMP) bind
PDE peak B
  competitive binding with cGMP: competitively (with cGMP) binds
